Data taken from PubChem BioAssay (NCI).
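The compound was tested at five concentrations on cells cultured in 96-well plates, with a 48-hour exposure period. TGI is the concentration that stops growth completely.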

Legend:
Assay in all cases: growth of human tumour cells (NCI), 48 h
[1] = system: A549 NSCLC
[2] = system: DLD-1 colon
[3] = system: EKVX NSCLC
[4] = system: HCC-2998 colon
[5] = system: HCT-116 colon
[6] = system: HOP-62 NSCLC
[7] = system: HT29 colon
[8] = system: IGROV1 ovarian
[9] = system: KM20L2 colon
[10] = system: NCI-H226 lung
[11] = system: OVCAR-8 ovarian
[12] = system: RXF 393 renal
[13] = system: SK-MEL-2 melanoma
[14] = system: SN12C renal
[15] = system: SNB-19 CNS
[16] = system: SNB-75 CNS
[17] = system: SR leukemia
[18] = system: TK-10 renal
[19] = system: UACC-257 melanoma
[20] = system: UO-31 renal
[21] = system: XF 498 CNS
[22] = system: 786-0 renal
[23] = system: ACHN renal
[24] = system: BT-549 breast
[25] = system: CAKI-1 renal
[26] = system: CCRF-CEM leukemia
[27] = system: COLO 205 colon
[28] = system: DU-145 prostate
[29] = system: HCT-15 colon
[30] = system: HL-60(TB) leukemia
[31] = system: HOP-92 NSCLC
[32] = system: HS 578T breast
[33] = system: K-562 leukemia
[34] = system: KM12 colon
[35] = system: LOX IMVI melanoma
[36] = system: M14 melanoma
[37] = system: MALME-3M melanoma
[38] = system: MCF7 breast
[39] = system: MDA-MB-231 breast
[40] = system: MDA-MB-435
[41] = system: MDA-N
[42] = system: MOLT-4 leukemia
[43] = system: NCI-H23 lung
[44] = system: NCI-H460 lung
[45] = system: NCI-H522 lung
[46] = system: NCI/ADR-RES ovarian
[47] = system: OVCAR-3 ovarian
[48] = system: OVCAR-4 ovarian
[49] = system: OVCAR-5 ovarian
[50] = system: PC-3 prostate
[51] = system: RPMI-8226 leukemia
[52] = system: SF-268 CNS
[53] = system: SF-295 CNS
[54] = system: SF-539 CNS
[55] = system: SK-MEL-28 melanoma
[56] = system: SK-MEL-5 melanoma
[57] = system: SK-OV-3 ovarian
[58] = system: SW-620 colon
[59] = system: T-47D breast
[60] = system: U251 CNS
[61] = system: UACC-62 melanoma

Compound: COc1c(C)cc2c(c1O)C1C3[C@H]4SC[C@@]5(NCCC6=C5NC5C=CC=CC65)C(=O)OCC(c5c6c(c(C)c(OC(C)=O)c54)OCO6)N3[C@@H](O)C(C2)N1C (some centres undefined)
- TGI [1]: 1.72 µM
- TGI [2]: 1.92 µM
- TGI [3]: 0.24 µM
- TGI [4]: 0.0109 µM
- TGI [5]: > 100 µM
- TGI [6]: < 0.01 µM
- TGI [7]: 10.3 µM
- TGI [8]: 1.85 µM
- TGI [9]: 1.45 µM
- TGI [10]: 0.0859 µM
- TGI [11]: < 0.01 µM
- TGI [12]: < 0.01 µM
- TGI [13]: < 0.01 µM
- TGI [14]: 1.3 µM
- TGI [15]: 3.64 µM
- TGI [16]: < 0.01 µM
- TGI [17]: > 100 µM
- TGI [18]: 12.8 µM
- TGI [19]: < 0.01 µM
- TGI [20]: 0.0112 µM
- TGI [21]: < 0.01 µM

Compound: COc1cc(-c2nc3ccccn3c2/N=C/c2cc(Br)cc(Br)c2O)ccc1O
- TGI [22]: 35.5 µM
- TGI [1]: > 100 µM
- TGI [23]: > 100 µM
- TGI [24]: 53.3 µM
- TGI [25]: 93.3 µM
- TGI [26]: 45.6 µM
- TGI [27]: 74.3 µM
- TGI [28]: 84.3 µM
- TGI [3]: 54.5 µM
- TGI [4]: > 100 µM
- TGI [5]: 34.7 µM
- TGI [29]: 44.8 µM
- TGI [30]: 46.4 µM
- TGI [6]: 52.5 µM
- TGI [31]: 50.8 µM
- TGI [32]: 83.8 µM
- TGI [7]: 57.1 µM
- TGI [8]: 49.9 µM
- TGI [33]: > 100 µM
- TGI [34]: 67.2 µM
- TGI [35]: 64.9 µM
- TGI [36]: 38.5 µM
- TGI [37]: 57.8 µM
- TGI [38]: 53.8 µM
- TGI [39]: 36.3 µM
- TGI [40]: 72 µM
- TGI [41]: 59 µM
- TGI [42]: 73.7 µM
- TGI [10]: 70.9 µM
- TGI [43]: 67.9 µM
- TGI [44]: > 100 µM
- TGI [45]: 58.2 µM
- TGI [46]: 64.5 µM
- TGI [47]: 39 µM
- TGI [48]: 61.3 µM
- TGI [49]: > 100 µM
- TGI [11]: 61.8 µM
- TGI [50]: 65.8 µM
- TGI [51]: > 100 µM
- TGI [12]: > 100 µM
- TGI [52]: 39.7 µM
- TGI [53]: 50 µM
- TGI [54]: 90.2 µM
- TGI [13]: 42.2 µM
- TGI [55]: 40.7 µM
- TGI [56]: 72.4 µM
- TGI [57]: 59 µM
- TGI [14]: 40.6 µM
- TGI [15]: 75.6 µM
- TGI [16]: 66.6 µM
- TGI [17]: 62.7 µM
- TGI [58]: 71.2 µM
- TGI [59]: 74.3 µM
- TGI [18]: 67.8 µM
- TGI [60]: 31.9 µM
- TGI [19]: 75.2 µM
- TGI [61]: 72.4 µM
- TGI [20]: 30.6 µM
